SMILES strings stand for the structures.

Data set [1] can be described thus: Solubility in water. It counts as physicochemical. The following applies: across the whole pH range.
A short description of data set [2]: Solubility in excipients. It counts as physicochemical. The following applies: diverse set of excipients, covering an HLB range of 1 to 20 and above.

For `CCc1cc2c(cc1N1CCC(N3CCOCC3)CC1)C(C)(C)c1[nH]c3cc(C#N)ccc3c1C2=O` [9-ethyl-6,6-dimethyl-8-(4-morpholin-4-yl-piperidin-1-yl)-11-oxo-6,11-dihydro-5H-benzo[b]carbazole-3-carbonitrile], the solubility in water result in data set [1] is on record as “practically insoluble in water”. The solubility in excipients entry in data set [2] was “poorly soluble”.
